# Active and inactive are the calls of the source. The calls are words filed in the database; no cut-off is given here. Where a SMILES comes first, the peptide text is derived from it. Bridges are numbered along the chain shown (N, C = ends).
# Assays:
# [1] = Inhibition of TAU derived synthetic hexapeptide AcPHF6 fibril formation at compound:AcPHF6 ratio of 1:1 to 1:64 incubated for 60 mins by thioflavin S fluorescence assay
# [2] = Inhibition of TAU derived synthetic hexapeptide AcPHF6 fibril formation incubated for 120 mins by thioflavin S fluorescence assay
# [3] = Binding affinity to thioflavin S at compound:AcPHF6 ratio of 1:1 to 1:64 incubated for 120 mins by fluorescence assay
# [4] = Binding affinity to thioflavin S at compound:AcPHF6 ratio of 1:1 incubated for 120 mins by fluorescence assay
Compound,inhibition [1],inhibition [2],Activity [3],Activity [4]
CC[C@H](C)[C@@H]1NC(=O)[C@@H]2CCCN2C(=O)[C@@H]2CCCN2C(=O)[C@H]([C@@H](C)CC)NC(=O)[C@H](CO)NC(=O)[C@H](CCCCN)NC(=O)[C@H]([C@@H](C)O)NC(=O)[C@@H]2CSSC[C@H](NC1=O)C(=O)N[C@@H](Cc1ccccc1)C(=O)N1CCC[C@H]1C(=O)N[C@@H](CC(=O)O)C(=O)NCC(=O)N[C@@H](CCCNC(=N)N)C(=O)N2,Active,Dose-dependent effect,inactive,–
CC[C@H](C)[C@@H]1NC(=O)[C@H](CCC(N)=O)NC(=O)[C@H](C(C)C)NC(=O)CNC(=O)[C@H](CC(=O)O)NC(=O)[C@@H]2CCCN2C(=O)[C@H](C(C)C)NC(=O)[C@H](C)NC(=O)[C@H](Cc2ccccc2)NC(=O)[C@@H]2CSSC[C@H](NC1=O)C(=O)N[C@@H](Cc1ccc(O)cc1)C(=O)N[C@@H](CCCCN)C(=O)N[C@@H](CO)C(=O)N[C@@H]([C@@H](C)CC)C(=O)N1CCC[C@H]1C(=O)N1CCC[C@H]1C(=O)N[C@@H]([C@@H](C)CC)C(=O)N2 (cyclo(AVPDGVQICYKSIPPICF); disulfide 9-17),Active,–,–,Active

# Reference: ChEMBL document CHEMBL3774331, “Inhibition of tau aggregation using a naturally-occurring cyclic peptide scaffold” (Eur J Med Chem, 2016)
